# Calls of active or inactive are those of the source. The rule behind the calls is not given here.
# Experiments:
# [1] = AUC(0 to t) in OVX-induced C57/BL6 mouse model at 5 mg/kg, po; format: ADME, organism-based; design: dose 5 mg/kg, route po; details: female, in vivo
# BMDM [2] = assay: Anti-osteoporosis activity C57/BL6 mouse bone marrow macrophage cells assessed as inhibition of RANKL-induced F-actin size upto 5 uM measured after 5 to 6 days in presence of M-CSF by DAPI staining analysis; format: functional, cell-based; details: time 5-6 day
# [3] = target: T1, Tumor necrosis factor ligand superfamily member 11 (Homo sapiens, UniProt O14788); assay: Binding affinity to human RANKL assessed as dissociation constant by surface plasmon resonance method
# T1 sequence (O14788 whole entry): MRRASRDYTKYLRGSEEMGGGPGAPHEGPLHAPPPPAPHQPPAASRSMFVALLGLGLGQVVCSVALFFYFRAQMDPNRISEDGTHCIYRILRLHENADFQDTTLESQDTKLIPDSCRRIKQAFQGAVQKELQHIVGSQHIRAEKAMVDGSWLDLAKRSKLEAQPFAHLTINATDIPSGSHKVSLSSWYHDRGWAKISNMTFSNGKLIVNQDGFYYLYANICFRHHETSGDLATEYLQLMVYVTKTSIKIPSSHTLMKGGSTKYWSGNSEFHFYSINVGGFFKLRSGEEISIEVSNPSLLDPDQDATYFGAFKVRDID
# [4] = Anti-osteoporosis activity C57/BL6 mouse bone marrow macrophage cells assessed as inhibition of RANKL-induced osteoclastogenesis at 1 uM measured after 5 to 6 days in presence of M-CSF and RNKL by TRAP staining microscopic analysis; format: functional, BMDM; design: scale not given: the % may be the effect or the level left; details: time 5-6 day
# BMDM [5] = assay: Anti-osteoporosis activity C57/BL6 mouse bone marrow macrophage cells assessed as inhibition of RANKL-induced osteoclastogenesis and measured after 5 to 6 days in presence of M-CSF by TRAP staining based assay; format: functional, cell-based; details: dose 0.1-5 µM, time 5-6 day, DDE = dose-dependent effect
# BMDM [6] = assay: Inhibition of RANKL-induced NFATC1 protein expression in C57/BL6 mouse bone marrow macrophage cells upto 10 uM measured for 3 days in presence of M-CSF and RANKL by Western blot analysis; format: functional, cell-based; details: time 3.0 day, DDE = dose-dependent effect
# Mus musculus [7] = assay: Anti-osteoporosis activity in ligature-induced periodontal BALB/c mouse model assessed as decrease in bone loss at 20 mg/kg, ip measured for 4 weeks by microCT imaging analysis; format: functional, organism-based
# [8] = Half life in OVX-induced C57/BL6 mouse model at 5 mg/kg, po; format: ADME, organism-based; details: female, in vivo
# BMDM [9] = assay: Cytotoxicity against C57/BL6 mouse bone marrow macrophage cells assessed as reduction in cell viability at 10 uM incubated for 3 days by CCK8 assay; format: toxicity, cell-based; details: 72 h, time 3 day
# [10] = Anti-osteoporosis activity C57/BL6 mouse bone marrow macrophage cells assessed as inhibition of RANKL-induced osteoclastogenesis measured after 5 to 6 days in presence of M-CSF by DAPI staining analysis; format: functional, cell-based; details: bmdm
# [11] = Oral bioavailability in OVX-induced C57/BL6 mouse model; format: ADME, organism-based; details: female, in vivo
# Mus musculus [12] = assay: Anti-osteoporosis activity in ligature-induced periodontal BALB/c mouse model assessed as increase in vertical bone at 20 mg/kg, ip measured for 4 weeks by microCT imaging analysis; format: functional
# Mus musculus [13] = assay: Anti-osteoporosis activity in ligature-induced periodontal BALB/c mouse model assessed as increase in bone volume at 20 mg/kg, ip measured for 4 weeks by microCT imaging analysis; format: functional
# BMDM [14] = assay: Inhibition of RANKL-induced c-fos in mRNA expression in C57/BL6 mouse bone marrow macrophage cells upto 5 uM measured after 3 days by qRT-PCR analysis; format: functional, cell-based; details: time 3.0 day
# [15] = Clearance in OVX-induced C57/BL6 mouse model at 3 mg/kg, iv; format: ADME, organism-based; details: female, in vivo
# [16] = AUC(0 to t) in OVX-induced C57/BL6 mouse model at 3 mg/kg, iv; format: ADME, organism-based; design: dose 3 mg/kg, route iv; details: female, in vivo
# [17] = Anti-osteoporosis activity C57/BL6 mouse bone marrow macrophage cells assessed as inhibition of RANKL-induced osteoclastogenesis at 0.1 uM measured after 5 to 6 days in presence of M-CSF and RNKL by TRAP staining microscopic analysis; format: functional, BMDM; design: scale not given: the % may be the effect or the level left; details: time 5-6 day
# [18] = Half life in OVX-induced C57/BL6 mouse model at 3 mg/kg, iv; format: ADME, organism-based; details: female, in vivo
# BMDM [19] = assay: Inhibition of RANKL-induced Cathepsin K in mRNA expression in C57/BL6 mouse bone marrow macrophage cells upto 5 uM measured after 3 days by qRT-PCR analysis; format: functional, cell-based; details: time 3.0 day
# [20] = Cmax in OVX-induced C57/BL6 mouse model at 5 mg/kg, po; format: ADME, organism-based; design: dose 5 mg/kg, route po; details: female, in vivo
# Mus musculus [21] = assay: Anti-osteoporosis activity in ligature-induced periodontal BALB/c mouse model assessed as increase in alveolar bone mass at 20 mg/kg, ip measured for 4 weeks by microCT imaging analysis; format: functional
# BMDM [22] = assay: Inhibition of RANKL-induced TRAP in mRNA expression in C57/BL6 mouse bone marrow macrophage cells upto 5 uM measured after 3 days by qRT-PCR analysis; format: functional, cell-based; details: time 3.0 day
# BMDM [23] = assay: Anti-osteoporosis activity C57/BL6 mouse bone marrow macrophage cells assessed as inhibition of RANKL-induced F-actin levels upto 5 uM measured after 5 to 6 days in presence of M-CSF by DAPI staining analysis; format: functional, cell-based; details: time 5-6 day
# Mus musculus [24] = assay: Anti-osteoporosis activity in OVX-induced C57/BL6 mouse model assessed as increase in bone mineral density by measuring recovery at 60 mg/kg, po once per day for 28 days by microCT imaging analysis; format: functional; details: time 28 day
# BMDM [25] = assay: Inhibition of RANKL-induced NFATc1 in mRNA expression in C57/BL6 mouse bone marrow macrophage cells upto 5 uM measured after 3 days by qRT-PCR analysis; format: functional, cell-based; details: time 3.0 day
# BMDM [26] = assay: Inhibition of RANKL-induced c-FOS protein expression in C57/BL6 mouse bone marrow macrophage cells upto 10 uM measured for 3 days in presence of M-CSF and RANKL by Western blot analysis; format: functional, cell-based; details: time 3.0 day, DDE = dose-dependent effect
# BMDM [27] = assay: Cytotoxicity against C57/BL6 mouse bone marrow macrophage cells at 5 uM measured after 3 days in presence of M-CSF by CCK-8 assay; format: toxicity, cell-based; details: 72 h, time 3 day
compound,measurement,setting,value
Cc1cccc(C)c1NC(=O)c1cc2c([nH]c3ccccc32)c(CCc2ccccc2)n1,AUC(0-t),[1],223 ng·h/mL
same,Activity,BMDM [2],Active
same,Kd,[3],5.03 µM
same,Activity,[4],89.3%
same,Activity,BMDM [5],Dde
same,inhibition,BMDM [6],Dde
same,Activity,Mus musculus [7],Active
same,half-life,[8],2 h
same,Cell viability,BMDM [9],> 100%
same,IC50,[10],0.52 µM
same,bioavailability,[11],4.9%
same,Activity,Mus musculus [12],67%
same,Activity,Mus musculus [13],51.9%
same,inhibition,BMDM [14],Active
same,clearance,[15],18.6 mL/min/kg
same,AUC(0-t),[16],2710 ng·h/mL
same,Activity,[17],45.9%
same,half-life,[18],5.1 h
same,inhibition,BMDM [19],Active
same,Cmax,[20],48.1 ng/mL
same,Activity,Mus musculus [21],60.7%
same,inhibition,BMDM [22],Active
same,Activity,BMDM [23],Active
same,Activity,Mus musculus [24],23.4%
same,inhibition,BMDM [25],Active
same,inhibition,BMDM [26],Dde
same,Activity,BMDM [27],Non-Toxic
